From US6369109B1, “Betulinic acid and derivatives thereof useful for the treatment of neuroectodermal tumor” (Deutsches Krebsforschungszentrum Stiftung des Offentlichen …, priority 1998, dated 2002)
Entries after “also recorded” stand apart in the source; their conditions may differ. Residues, ends and D or L forms follow the SMILES beside them. *: point of attachment. Cbz = O=C(OCc1ccccc1)*; CH2F = FC*

Assays:
[1] = tested on: SH-EP neuroblastoma cells; test: Specific apoptosis, FACS analysis of propidium iodide-stained nuclei; format: cell-based, human; conditions: for effect of CD95 blockage by F(ab′)2 anti-APO-1 on drug-induced apoptosis: 10 μg/ml antibody fragments 1 h before drug, 10 μg/ml betulinic acid, 50 μg/ml VP-16, 10 μg/ml cisplatinum, 0.5 μg/ml doxorubicin, 72 h, FIG. 3B
Experimental: Quantification of DNA fragmentation was performed by FACS analysis of propidium iodide stained nuclei as described in Nicoletti et al, 1991, J. Immunol. Methods. 139: 271-279. Cells were analyzed for DNA content by flow. cytometry (FACScan, Becton Dickinson, Heidelberg, Germany) using CELLQuest software. Early apoptotic changes were identified by staining with biotinylated annexin V (Bender Med Systems, Vienna, Austria) following the manufacturer's instructions. Annexin V binds to exposed phosphatidylserine on the surface of apoptotic cells. Koopman et al, 1994, Blood. 84:1415-1420. Cells were analyzed by flow cytometry (FAC-Scan. Becton Dickinson) using CELLQuest software.
Cells were treated with 10 μg/ml betulinic acid for 72 h. Apoptosis was assessed by FACS analysis of propidium iodide-stained nuclei. Percentage of specific apoptosis was calculated as follows: experimental apoptosis (%) −spontaneous apoptosis in medium (%)/[100%−spontaneous apoptosis in medium (%)]×100%. […]
Cells were incubated for indicated times with doxorubicin, betulinic acid or anti-APO-1 and harvested by trypsinization using 0.05% trypsin and 0.02% EDTA without Ca^2+and Mg^2+(Life Technologies, Inc.). Quantification of DNA fragmentation was performed by FACS analysis of propidium iodide stained nuclei as previously described in Nicoletti et al., J. ImmunoL Methods 139:271-279, using CELLQuest software (Becton Dickinson, Heidelberg, Germany).
SHEP cells transfected with Bcl-2 or BCl-XL or a neomycin resistance vector only (Neo) were treated with 0.5 μg/ml Doxorubicin or 10 μg/ml Betulinic acid for 48 h (A) or 24 h (B and C). Cells transfected with a neomycin resistance vector only (Neo) were treated in the presence or absence of 50 μm BA or 60 μm zVAD-fmk. Nuclear apoptosis was determined by FACS analysis or propidium iodide-stained DNA content in intact cells (A) or in a CFS incubating isolated nuclei with mitochondria from cells treated with Doxo or betulinic acid (C). ΔΨm was determined by staining cells with the potential-sensitive fluorochrome DiOC6(3) (B).

[2] = tested on: caspase-3, caspase-8 and PARP in cytosolic extracts of SHEP cells; test: Cell-free system of apoptosis: cleavage of caspases in cytosolic extracts by mitochondria; format: biochemical, human; conditions: for effect of inhibitor on caspase processing by supernatants from betulinic acid-treated mitochondria: 50 μM bongkrekic acid or 60 μM zVAD-fmk, FIG. 10A
Experimental: For determination of nuclear fragmentation, nuclei (10^3/μl) were incubated with mitochondria (1 μg/μl) in buffer D (10 mM HEPES, pH 7.4, 50 mM NaCl, 2 mM MgCl2, 5 mM EGTA, 1 mM DDT, 2 mM ATP, 10 mM phosphocreatine, 50 μg/ml creatine kinase, 10 μM cytochalasin B) for 2 h at 37° C. Nuclei were stained with propidium iodide ([…]) and analyzed by flow cytometry. For determination of caspase activation, cytosolic extracts (2 μg/μl) were incubated with mitochondria (1 μg/μl), cytochrome c (0.1-100 μM) or AIF-containing mitochondrial supernatant (0.5 μg/μl) in buffer D for 2 h at 37° C. Partially purified AIF (cytochrome c-free) was prepared as previously described (0.5 mg/ml, Susin et al., 1997, J. Exp. Med. 186, 5-37; Susin et al., 1996, J. Exp. Med. 184, 1331-41). Proteins were separated by 15% SDS-PAGE and Western blot analysis was performed as described above. To confirm equal loading of mitochondrial protein, all Western blots were also developed with an antibody directed against a 60 kDa mitochondrial antigen (data not shown).
SHEP cells transfected with bcl-2 or Bcl-XL or a neomycin resistance vector only were treated with 10 μg/ml betulinic acid for 16 h. Mitochondria were isolated and incubated with cytosolic extracts for 6 h in the presence or absence of 60 μM zVAD-fmk (left panel, cells). Alternatively, mitochondria isolated from untreated cells were incubated with 10 μg/ml betulinic acid or 5 mM atractyloside together with cytosolic extracts for 6 h in the presence or absence of 60 μMZ-VAD-fmk (right panel, mitos, Atra). Cytosolic extracts incubated with mitochondria isolated from untreated cells or with untreated mitochondria were used as control. 40 μg protein per lane isolated front cell lysates were separated by 15% SDS-PAGE. Immunodetection of caspases-3, -8 and PARP protein was performed by mouse anti-caspase-3 mAb, mouse anti-caspase-8 mAb, rabbit anti-PARP polyclonal antibody and ECL.
SHEP cells treated with 10 μg/ml betulinic acid for indicated times. Mitochondria were isolated and incubated with cytosolic extracts for 6 h. Western blot analysis was performed as described above.
Mitochondria isolated from SHEP cells transfected with bcl-2 or Bcl-XL or a neomycrn resistance vector only were treated with 10 μg/ml betulinic acid or 5 mM atractyloside for 0.5 h in the presence or absence of 50 μM bongkrekic acid or 60 μM zVAD-fmk. Mitochondrial supernatants obtained by high speed centrifugation were incubated with cytosolic extracts for 6 h at 37° C. Cytosolic extracts incubated with supernatants of untreated mitochondria were used as control. Western blot analysis was performed as described for FIG. 9A.
For determination of nuclear fragmentation, nuclei (10^3/μl) were incubated with mitochondria (1 μg/μl) in buffer D (10 mM HEPES, pH 7.4, 50 mM NaCl, 2 mM MgCl2, 5 mM EGTA, 1 mM DDT, 2 mM ATP, 10 mM phosphocreatine, 50 μg/ml creatine kinase, 10 μM cytochalasin B) for 2 h at 37° C. Nuclei were stained with propidium iodide ([…]) and analyzed by flow cytometry (Susin et al., 1997 Exp. Cell Res. 236:397-403). For determination of caspase activation, cytosolic extracts (2 μg/μl) were incubated with mitochondria (1 μg/μl), cytochrome c (10 μM) or AIF-containing mitochondrial supernatant (0.5 μg/μl) in buffer D for 2 h at 37° C. Proteins were separated by 15% SDS-PAGE and Western blot analysis was performed as described before.
SHEP cells transfected with Bcl-2 or Bcl-XL or a neomycin resistance vector only (Neo) were treated (Lanes+) with 0.5 μg/ml Doxo or 10 μg/ml Bet A for 16 h. Mitochondria were isolated and incubated with cytosolic extracts for 6 h. in the presence or absence of 60 μm Z-VAD.fmk. Western blot analysis was performed as described in FIG. 14A.

Row | Structure (SMILES) | effect of inhibitor on betulinic acid-induced apoptosis ([1]; 60 μM zVAD-fmk, 10 μg/ml betulinic acid 72 h, FIG. 2D) | effect of inhibitor on betulinic acid-induced nuclear fragmentation ([1]; 60 μM zVAD-fmk, FIG. 12A) | effect of inhibitor on doxorubicin-induced nuclear fragmentation ([1]; 60 μM zVAD-fmk, FIG. 12A) | effect of inhibitor on caspase processing by supernatants from betulinic acid-treated mitochondria [2] | effect of inhibitor on cleavage of caspases by mitochondria from drug-treated cells ([2]; 60 μM zVAD-fmk, FIG. 9A, 15A) | effect of CD95 blockage by F(ab′)2 anti-APO-1 on drug-induced apoptosis [1] | effect of inhibitor on drug-triggered nuclear fragmentation ([1]; 50 μM bongkrekic acid, doxorubicin or betulinic acid, FIG. 12A) | nuclear fragmentation in intact SHEP cells ([1]; 0.5 μg/ml doxorubicin or 10 μg/ml betulinic acid, 48 h, FIG. 12A) | caspase and PARP processing in cytosolic extracts by mitochondria from drug-treated cells ([2]; 10 μg/ml betulinic acid or 0.5 μg/ml doxorubicin 16 h, extracts 6 h, FIG. 9A, 15A)
1 | COC(=O)C[C@H](NC(=O)[C@H](C)NC(=O)[C@@H](NC(=O)OCc1ccccc1)C(C)C)C(=O)CF [zVAD-fmk, benzyloxycarbonyl-Val-Ala-Asp-Fluoromethylketone] (Cbz-Val-Ala-Asp(OMe)-CH2F) | almost completely abrogated apoptosis | only affected the betulinic acid-induced nuclear fragmentation | both inhibited | inhibited | blocked | – | – | – | –
2 | CO[C@H](C/C=C\C=C\CC/C=C/C[C@H](C)/C=C/C(=C\C(=O)O)CC(=O)O)/C(C)=C\C=C(/C)C(=O)O [bongkrekic acid] | – | – | – | inhibited | – | did not inhibit | inhibited drug-triggered nuclear fragmentation and ΔΨm loss | – | –
3 | COc1cccc2c1C(=O)c1c(O)c3c(c(O)c1C2=O)C[C@@](O)(C(=O)CO)C[C@@H]3O[C@H]1C[C@H](N)[C@H](O)[C@H](C)O1 [doxorubicin] | – | – | – | – | – | significantly blocked; also recorded: markedly reduced | – | induced loss of ΔΨm and nuclear fragmentation | induced cleavage of caspases-3, -8 and PARP
